Positions of bridges follow the written chain, without caps; N, C: chain ends.
Tests used:
anti-β1-ECII antibodies = experiment: ELISA-competition assay: peptide preincubated with sera/IgG of immunized antibody-positive rats, linear 25AA Cys/Cys-peptide as antigen; format: binding, rat; conditions: for decrease in circulating free anti-beta1-ECII antibodies: n=6 sera (FIG. 11)
Procedure, shortened: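 Rat sera or IgG fractions from immunized anti-β1-ECII antibody-positive rats preincubated 12 h at 4° C (rotating) with linear or cyclic β1-ECII peptides at fold molar excess (1:1 peptide:IgG assumed). Residual binding measured by ELISA on linear 25AA Cys/Cys-peptide antigen, given as % blocked versus non-blocked reactivity.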

[1] = test system: anti-beta1-ECII antibody-secreting cells (ASC); experiment: ELISPOT-assay with B-cells from bone marrow or spleen of prophylactically treated rats; format: in vivo, rat; conditions: prophylactically treated versus untreated immunized rats, n=3-4 (FIG. 13)
Experimental: Cys/Ser, horizontally hatched columns). For the assays, ELIspot plates were coated overnight with the specific antigen (GST/beta1-ECII-FP) in 0.05 mol/1 Tris buffer, pH 9.4.; then the plates were washed 3 times and blocked with BSA for 3 hours at 37° C. Subsequently, the plates were incubated overnight at 37° C. with B-cells from either spleen or bone marrow (cultured in RPMI 1640/X-VIVO-15 medium supplemented with 10% fetal calf serum (FCS)) with 1×10^6 to 1×10^3 cells per well. After 12 hours the B-cells were discarded and the plates with the B-cell secreted IgG bound were washed several times (PBS/0.5° A) Tween) before the addition of alkaline phos-phatase conjugated secondary anti-rat IgG (0.3 μg/ml) to detect bound rat IgG. Then the plates were incubated for another 3 hours at 37° C., washed several times with PBS/0.5% Tween, and developed using LMP/BICP 5:1 (1 ml per well; “LMP” means low melting agarose, and “BICP” means 5-bromo-4-chloro-3-indolyl phosphate p-toluidine salt, a blue-colored dye) allowing for a quantification of the blue spots obtained, with each spot representing an antigen-specific IgG secreting spleen or bone-marrow cell.
This finding was confirmed by ELIspot analysis of bone marrow and spleen cell preparations of selected cyclopeptide-treated versus untreated immunized rats (n=3).

Which results are given for “Cyclo-Ala-Asp-Glu-Ala-Arg-Arg-Cys-Tyr-Asn-Asp-Pro-Lys-Cys-Ser-Asp-Phe-Val-Gln (cyclo(ADEARRCYNDPKCSDFVQ); disulfide 7-13; SMILES CC(C)[C@@H]1NC(=O)[C@H](Cc2ccccc2)NC(=O)[C@H](CC(=O)O)NC(=O)[C@H](CO)NC(=O)[C@@H]2CSSC[C@H](NC(=O)[C@H](CCCNC(=N)N)NC(=O)[C@H](CCCNC(=N)N)NC(=O)[C@H](C)NC(=O)[C@H](CCC(=O)O)NC(=O)[C@H](CC(=O)O)NC(=O)[C@H](C)NC(=O)[C@H](CCC(N)=O)NC1=O)C(=O)N[C@@H](Cc1ccc(O)cc1)C(=O)N[C@@H](CC(N)=O)C(=O)N[C@@H](CC(=O)O)C(=O)N1CCC[C@H]1C(=O)N[C@@H](CCCCN)C(=O)N2) [18AA Cys/Ser mutant (Gln-)cyclopeptide, disulphide bond Cys7-Cys13, ring closure Ala1-Gln18]”?
decrease in circulating free anti-beta1-ECII antibodies (anti-β1-ECII antibodies; 8-fold molar excess of peptide): 53%; decrease in circulating free anti-beta1-ECII antibodies (anti-β1-ECII antibodies; 20-fold molar excess of peptide): 66%; decrease in circulating free anti-beta1-ECII antibodies (anti-β1-ECII antibodies; 80-fold molar excess of peptide): about 85%; blocking-efficiency versus unblocked sera (anti-β1-ECII antibodies; n=6 sera, incubation 12-14 h, 4° C., mean ±SEM (FIG. 27)): 60.0±8.3%; fraction of rat sera blocked by the peptide (anti-β1-ECII antibodies; n=69 sera, (Gln-)cyclopeptide mutants (FIG. 10), Cys/Ser = blocked by it alone (n=64), Ser/Cys = sera blocked by both (n=5)): About 93%; blocking efficiency (% of blocked versus non-blocked ELISA reactivity) (anti-β1-ECII antibodies; type1 sera (93%, n=64 of 69), FIG. 9 upper panel, ±SEM): 68±3%; blocking capacity (% of blocked versus non-blocked ELISA reactivity) (anti-β1-ECII antibodies; type 2 sera (7%, n=5 of 69), FIG. 9 lower panel, ±SEM): 50±8%; number of specific anti-beta1-ECII antibody-secreting cells (ASC) in spleen and bone marrow [1]: significant decrease

Source: patent US9062095B2, “Mutant double cyclized receptor peptides inhibiting β1-adrenoceptor antibodies” (JULIUS-MAXIMILIANS-UNIVERSTITAT-WURZBURG, priority 2007, dated 2015)
